From patent publication US20160304957A1, “TREATMENT AND MODULATION OF GENE EXPRESSION AND SKIN AGING” (DSM NUTRITIONAL PRODUCTS LTD., priority 2006, published 2016)

Test system: HaCaT human keratinocytes
Test: Affymetrix GeneChip microarray, transcriptional response to β-carotene and/or UVA
Assay type: cell-based
Procedure: The cell culture experiments were carried out as described. Briefly, a subclone of passage 65 HaCaT keratinocytes, selected for differentiation capacity, was used at passages 16 to 23 after subcloning. 2×10^5 cells were seeded per 60 millimeter dish. Starting the following day, the cells were pretreated for 2 days with β-carotene at 1.5 μM, a typical concentration in human plasma after moderate dietary supplementation)
β-carotene-containing medium was prepared as follows. Fresh all-E-β-carotene (DSM Nutritional Products, Kaiseraugst, Switzerland) stock solution in THF (containing 0.025% BHT; Fluka Chemie A G, Switzerland) was diluted 1:2 with ethanol and added to cell culture medium to a final concentration of 1.5 μM β-carotene. The solvent concentration in the medium was 0.5% for all treatments. β-carotene-containing medium was prepared fresh for the daily medium changes.
On day 3 of the experiment, the cells were irradiated with a Hönle sun lamp Sol 500 (270 kJ/m^2; Dr. Hönle, Germany).
Five independent, factorially designed cell irradiation experiments were analyzed by microarray hybridization. For each experiment, one chip was hybridized per treatment condition. GeneChip® analysis was done as described in [132], which is incorporated by reference, as if recited in full herein. Gene regulation by β-carotene and/or UVA was calculated relative to placebo.
Changes in gene expression were included in further analysis only if the change factor was […], and if unpaired t-tests yielded p values≦0.05. Upregulations by a […] are labeled bold, downregulations by a change factor of […] are labeled bold italics. (Table 1) To identify the pathways affected by the treatments functional information on the genes was retrieved from public literature databases.

With `CC1=C(/C=C/C(C)=C/C=C/C(C)=C/C=C/C=C(C)/C=C/C=C(C)/C=C/C2=C(C)CCCC2(C)C)C(C)(C)CCC1` [β-carotene, All-E-β-carotene] the “NCF2; p67-phox; neutrophil oxidase factor (M32011) change factor” value (UVA and β-carotene 1.5 μM) was −0.16, the “NF-κB subunit (S78771) change factor” value (UVA and β-carotene 1.5 μM) was 0.56 and the “NF-κB subunit (X61498) change factor” value (UVA and β-carotene 1.5 μM) was 0.7. For the same molecule, the “NFκB; p50 (S76638) change factor” value (UVA and β-carotene 1.5 μM) was 0.55, the “NOL1; p120 nucleolar antigen (X55504) change factor” value (UVA and β-carotene 1.5 μM) was 0.94 and the “NOTCH3 (U97669) change factor” value (UVA and β-carotene 1.5 μM) was −1.37. The “NOV (X96584) change factor” value (UVA and β-carotene 1.5 μM) was 0.72, the “NOXA (D90070) change factor” value (UVA and β-carotene 1.5 μM) was 0.74 and the “NRF1 (L24123) change factor” value (UVA and β-carotene 1.5 μM) was −0.65. For the same molecule, the “NRF2, subunit beta 1 (U13045) change factor” value (UVA and β-carotene 1.5 μM) was −0.11, the “OSR1; oxidative-stress responsive 1 (AB017642) change factor” value (UVA and β-carotene 1.5 μM) was 0.59 and the “PAR-1; thrombin receptor (M62424) change factor” value (UVA and β-carotene 1.5 μM) was −0.05. For the same molecule, the “PAR-2; proteinase activated receptor-2 (U34038) change factor” value (UVA and β-carotene 1.5 μM) was 1.91, the “PAR-2; proteinase activated receptor-2 (U34038, second entry) change factor” value (UVA and β-carotene 1.5 μM) was 1.34 and the “PAR-2; proteinase activated receptor-2 (U67058) change factor” value (UVA and β-carotene 1.5 μM) was 3.32. The “PAR-4; protease-activated receptor 4 (AF055917) change factor” value (UVA and β-carotene 1.5 μM) was −0.57, the “RAIDD; death adaptor molecule (U79115) change factor” value (UVA and β-carotene 1.5 μM) was −0.66 and the “RB1 (L49229) change factor” value (UVA and β-carotene 1.5 μM) was −1.13. The “RB2/p130 (X74594) change factor” value (UVA and β-carotene 1.5 μM) was −0.85, the “RETSDR1; retinal short-chain dehydrogenase/reductase (AF061741) change factor” value (UVA and β-carotene 1.5 μM) was −0.06 and the “RPA; replication protein A 14 kda subunit (rpa) (L07493) change factor” value (UVA and β-carotene 1.5 μM) was −0.52. The “RXRα (U66306) change factor” value (UVA and β-carotene 1.5 μM) was −0.61, the “RXRα (X52773) change factor” value (UVA and β-carotene 1.5 μM) was −0.57 and the “Requiem (AF001433) change factor” value (UVA and β-carotene 1.5 μM) was 0.32. The “SMAD 1 (U59423) change factor” value (UVA and β-carotene 1.5 μM) was −0.57, the “SMAD3 (U68019) change factor” value (UVA and β-carotene 1.5 μM) was 0.01 and the “SMAD3 (U68019, second entry) change factor” value (UVA and β-carotene 1.5 μM) was −0.09. The “SMAD4 (U44378) change factor” value (UVA and β-carotene 1.5 μM) was −0.67, the “SMAD5 (U59913) change factor” value (UVA and β-carotene 1.5 μM) was −0.84 and the “SMAD6 (AF035528) change factor” value (UVA and β-carotene 1.5 μM) was −24.2. The “SMAD7 (AF010193) change factor” value (UVA and β-carotene 1.5 μM) was −0.63, the “SMRT (U37146) change factor” value (UVA and β-carotene 1.5 μM) was −1.22 and the “STK15; BTAK (AF011468) change factor” value (UVA and β-carotene 1.5 μM) was −1.85. For the same molecule, the “TDAG51; PQ-rich protein; PHLDA1 (Z50194) change factor” value (UVA and β-carotene 1.5 μM) was 6.19, the “TGFβ; transforming growth factor β (X02812) change factor” value (UVA and β-carotene 1.5 μM) was 0.46 and the “TIAR; nucleolysin tiar (M96954) change factor” value (UVA and β-carotene 1.5 μM) was −0.08. For the same molecule, the “TIEG, EGRα (AF050110) change factor” value (UVA and β-carotene 1.5 μM) was −0.11, the “TLR3; toll-like receptor 3 (U88879) change factor” value (UVA and β-carotene 1.5 μM) was −0.91 and the “TOP2; topoisomerase II (J04088) change factor” value (UVA and β-carotene 1.5 μM) was −0.86. The “TRADD; TNF receptor-1 associated protein (L41690) change factor” value (UVA and β-carotene 1.5 μM) was −0.85, the “TRAIL; TNF-related apoptosis inducing ligand (U37518) change factor” value (UVA and β-carotene 1.5 μM) was −2.66 and the “TRIP14; ‘2-5’ oligoadenylate synthetase (AJ225089) change factor” value (UVA and β-carotene 1.5 μM) was 0.67. For the same molecule, the “TRIP (U77845) change factor” value (UVA and β-carotene 1.5 μM) was −1.35, the “TSSC3 (AF035444) change factor” value (UVA and β-carotene 1.5 μM) was 0.7 and the “TSSC3/IPL (AF001294) change factor” value (UVA and β-carotene 1.5 μM) was 1.02. For the same molecule, the “VEGF (AF022375) change factor” value (UVA and β-carotene 1.5 μM) was 0.78, the “VEGF (AF024710) change factor” value (UVA and β-carotene 1.5 μM) was 1.86 and the “VEGF (M63978) change factor” value (UVA and β-carotene 1.5 μM) was 1.09. For the same molecule, the “VEGFR2; VEGF receptor 2; KDR; FLK-1kdr/flk-1 (AF035121) change factor” value (UVA and β-carotene 1.5 μM) was −0.28, the “WEE1 (X62048) change factor” value (UVA and β-carotene 1.5 μM) was 0.05 and the “WNT5A (I20861) change factor” value (UVA and β-carotene 1.5 μM) was −2.22. For the same molecule, the “WNT5A (I20861, second entry) change factor” value (UVA and β-carotene 1.5 μM) was −3.34, the “XRCC4 (U40622) change factor” value (UVA and β-carotene 1.5 μM) was −0.01 and the “bFGF; basic fibroblast growth factor; FGF2 (M27968) change factor” value (UVA and β-carotene 1.5 μM) was 0.82. The “bilirubin udp-glucuronosyltransferase isozyme 2 (M57951) change factor” value (UVA and β-carotene 1.5 μM) was −0.66, the “bullous pemphigoid autoantigen bp180 (M91669) change factor” value (UVA and β-carotene 1.5 μM) was −0.57 and the “c-myc (V00568) change factor” value (UVA and β-carotene 1.5 μM) was 3.22. For the same molecule, the “c-myc (V00568, second entry) change factor” value (UVA and β-carotene 1.5 μM) was 2.45, the “c-myc binding protein (mbp-1) (M55914) change factor” value (UVA and β-carotene 1.5 μM) was 0.54 and the “caspase 2, ICH-1S (U13022) change factor” value (UVA and β-carotene 1.5 μM) was −0.62. For the same molecule, the “caspase 7 (U67319) change factor” value (UVA and β-carotene 1.5 μM) was 0.31, the “ceruloplasmin (ferroxidase) (M13699) change factor” value (UVA and β-carotene 1.5 μM) was 1 and the “collagen type IV, α-2 (COL4A2) (X05610) change factor” value (UVA and β-carotene 1.5 μM) was −0.98. For the same molecule, the “collagen type IV, α-5 (COL4A5) (M58526) change factor” value (UVA and β-carotene 1.5 μM) was −1.16, the “collagen type IV, α-6 (COL4A6) (D21337) change factor” value (UVA and β-carotene 1.5 μM) was −0.71 and the “collagen type VII, α-1 (COL7A1) (L02870) change factor” value (UVA and β-carotene 1.5 μM) was −0.83. The “connexin 31 (AF099730) change factor” value (UVA and β-carotene 1.5 μM) was 2.3, the “connexin 45 (U03493) change factor” value (UVA and β-carotene 1.5 μM) was 0.26 and the “coproporphyrinogen oxidase (D16611) change factor” value (UVA and β-carotene 1.5 μM) was −0.7. The “cyclin E2 (AF091433) change factor” value (UVA and β-carotene 1.5 μM) was 0.26, the “cyclin E (M73812) change factor” value (UVA and β-carotene 1.5 μM) was 1.75 and the “desmocollin type 4 (D17427) change factor” value (UVA and β-carotene 1.5 μM) was −1.71. For the same molecule, the “ferritin heavy chain (L20941) change factor” value (UVA and β-carotene 1.5 μM) was 0.59, the “frizzled-2 (I37882) change factor” value (UVA and β-carotene 1.5 μM) was −1.38 and the “frizzled-6 (AB012911) change factor” value (UVA and β-carotene 1.5 μM) was −1.16. For the same molecule, the “haemochromatosis protein (hla-h) (U60319) change factor” value (UVA and β-carotene 1.5 μM) was −0.61, the “hsp40; heat shock protein 40 (U40992) change factor” value (UVA and β-carotene 1.5 μM) was −0.07 and the “integrin α6 (X53586) change factor” value (UVA and β-carotene 1.5 μM) was −0.76. For the same molecule, the “integrin α6b (S66213) change factor” value (UVA and β-carotene 1.5 μM) was −0.46, the “integrin α6b (S66213, second entry) change factor” value (UVA and β-carotene 1.5 μM) was −0.73 and the “jagged2 (jag2) (AF029778) change factor” value (UVA and β-carotene 1.5 μM) was −0.67. For the same molecule, the “keratin 2e (KRT2E); Keratin 2A (AF019084) change factor” value (UVA and β-carotene 1.5 μM) was −0.69, the “keratin 5 (M21389) change factor” value (UVA and β-carotene 1.5 μM) was 0.81 and the “keratin 15 (J00124) change factor” value (UVA and β-carotene 1.5 μM) was 0.96. For the same molecule, the “keratin 16 (M28439) change factor” value (UVA and β-carotene 1.5 μM) was −0.38, the “keratin 17 (Z19574) change factor” value (UVA and β-carotene 1.5 μM) was 0.6 and the “mKI67a mrna (long type) for antigen of monoclonal antibody KI-67 (X65550) change factor” value (UVA and β-carotene 1.5 μM) was −0.87. The “mKI67a mrna (long type) for antigen of monoclonal antibody KI-67 (X65550, second entry) change factor” value (UVA and β-carotene 1.5 μM) was −1.59, the “ornithine decarboxylase (M33764) change factor” value (UVA and β-carotene 1.5 μM) was 0.57 and the “ornithine decarboxylase (X16277) change factor” value (UVA and β-carotene 1.5 μM) was 0.37. The “p21; wild-type p53 activated fragment-1 (WAF1) (U03106) change factor” value (UVA and β-carotene 1.5 μM) was 0.21, the “p33; ING1b (AB024401) change factor” value (UVA and β-carotene 1.5 μM) was 0.64 and the “p160ROCK (U43195) change factor” value (UVA and β-carotene 1.5 μM) was −0.55. For the same molecule, the “protoporphyrinogen oxidase (D38537) change factor” value (UVA and β-carotene 1.5 μM) was −0.54, the “rTS α (X67098) change factor” value (UVA and β-carotene 1.5 μM) was −0.47 and the “serpinB1 (M93056) change factor” value (UVA and β-carotene 1.5 μM) was 0.57. For the same molecule, the “stimulator of Fe transport (AF020761) change factor” value (UVA and β-carotene 1.5 μM) was 1.03, the “thioredoxin reductase (X91247) change factor” value (UVA and β-carotene 1.5 μM) was 1.48 and the “thymidylate synthase (X02308) change factor” value (UVA and β-carotene 1.5 μM) was −0.56. The “transferrin receptor (X01060) change factor” value (UVA and β-carotene 1.5 μM) was 0.91, the “uroporphyrinogen III synthase (J03824) change factor” value (UVA and β-carotene 1.5 μM) was −0.61 and the “α topoisomerase truncated-form (L47276) change factor” value (UVA and β-carotene 1.5 μM) was −0.81. The “reduction of UVA induction of MMP-10” value (β-carotene 1.5 μM, 5 hours after UVA) was 30%.
